Source: PMC12720774, “Detergents alter the stability and lipid binding properties of the CD1d immunoreceptor” (Protein Science : A Publication of the Protein Society, 2025)
Several values for one entry are separate records, joined by “and”; a condition that tells them apart may be missing. Equal entries are not always repeated. Where two headings read alike, the source gives them in different places.

Experiments:
[1] = molecular target: T1, recombinant human CD1d ectodomain/β2m complex (hCD1d) (Homo sapiens, UniProt P15813); assay: Intrinsic tryptophan fluorescence (ITF) binding assay; details: 18:1 LPC titration with 0.05% CHAPS; read-out: K D (ITF) of lipid
T1 construct: TEV protease cleavage site ENLYFQS (C); BirA biotinylation site (C); His7 (C); made in house; host or cells: TurboCHO cells (GenScript)
Procedure: For ITF assays, the concentration of hCD1d was kept constant, and intrinsic Trp fluorescence (excitation at 285 nm, emission at 335 nm) was measured as a function of increasing detergent concentration (Fossum et al., [2023]) (Figure S2). The change in relative fluorescence intensity (F − F 0/F 0) provides an indication of binding. […] This was due to limited detergent solubility and decreased hCD1d stability in the presence of a large excess of detergent (see below). […] SDS was the exception, for which Trp fluorescence of hCD1d decreased with added detergent. This could indicate a unique conformational change or destabilization of the protein.
ITF spectra were recorded from 300 to 500 nm using a Horiba FL3‐21 Fluorometer with the excitation wavelength of 285 nm and excitation/emission slits of 6.2 nm. Fluorescence spectra of 50 to 100 nM hCD1d were acquired in the absence and presence of detergents in 1X PBS pH 7.4 at 25°C. Prior to data acquisition, hCD1d and detergent or lipid samples were incubated at 37°C overnight (~12 h) to simulate in vitro and in vivo loading conditions. […] For 18:1 LPC experiments, fluorescence spectra of 100 nM hCD1d were acquired in the absence and presence of 18:1 LPC in 1X PBS pH 7.4 at 25°C. […] For all ITF experiments, the change in fluorescence signal (F − F 0/F 0) was determined at 335 nm. Three replicates were performed, and data are presented as the mean ± standard deviation (n = 3). K D values were fitted with non‐linear regression in GraphPad Prism v10.1.

hCD1d [2] = molecular target: T2, hCD1d (Homo sapiens, UniProt P15813+P61769); assay: Nano differential scanning fluorimetry (nanoDSF) thermal stability; type: binding; set-up: TEV protease cleavage site ENLYFQS (C); BirA biotinylation site (C); His7 (C); made in house; host or cells: TurboCHO cells (GenScript)
Description: We next sought to probe the ability of each detergent to influence the thermal stability of hCD1d. NanoDSF has been previously applied to measure lipid/detergent‐induced thermal stability changes in target proteins (Cecchetti et al., [2021]; Kotov et al., [2019]), but has not yet been applied to ligand binding to CD1. NanoDSF measures the ITF ratio (F 350 nm/F 330 nm) of proteins as a function of temperature to extract thermodynamic parameters. Given that ligand binding typically shifts the melting temperature of proteins, the effect of a ligand on protein stability can be approximated with the ΔT m value (the difference in T m with and without excess ligand) (Cecchetti et al., [2021]; Kotov et al., [2019]). We found all detergents tested to destabilize hCD1d, albeit to different degrees, with ΔT m values ranging from −0.8 to −14.2°C (Figures 4, S4, and Table 1).
Nano differential scanning fluorometry (nanoDSF) was performed using a Prometheus NT.48 (NanoTemper Technologies). Purified hCD1d at 1 μM in 1X PBS pH 7.4 was loaded into nanoDSF grade standard capillaries (NanoTemper Technologies) and exposed to temperatures ranging from 20 to 95°C with a thermal ramping rate of 1°C/min. Excitation power was set to 50%. The ratio of intrinsic fluorescence emission (F 350 nm/F 330 nm) was monitored. Melting temperatures (T m) were obtained from fitting the first derivative plots in the Prometheus NT.48 Software. The experiments were performed in triplicate, and data are presented as the mean ± standard deviation (n = 3).
For experiments with most detergents, prior to data acquisition, hCD1d and detergent or lipid samples were incubated at 37°C overnight (~12 h) to simulate in vitro and in vivo loading conditions. […] For 18:1 LPC experiments: nanoDSF spectra were acquired in the absence and presence of 18:1 LPC in 1X PBS pH 7.4 at 25°C.

AF647‐labeled hCD1d [3] = molecular target: T3, AF647‐labeled hCD1d (Homo sapiens, UniProt P15813); assay: Microscale thermophoresis (MST) binding assay; details: read-out: K D (MST) of lipid
T3 construct: TEV protease cleavage site ENLYFQS (C); BirA biotinylation site (C); His7 (C); made in house; host or cells: TurboCHO cells (GenScript)
Description: (§1) The experimental limitations of ITF, such as low instrument sensitivity, high sample consumption, signal overlap with some ligands, and low throughput (Fossum et al., [2023]), made it necessary to employ alternative, complementary assays to quantify detergent binding to hCD1d. […] MST measures the diffusion of fluorescent molecules in response to microscopic temperature gradients (Seidel et al., [2013]). When a protein forms a complex with a ligand, changes in hydrodynamic properties, charge, or solvation energy alter its thermophoretic behavior, allowing detection of binding events. To perform MST experiments, Alexa Fluor 647 (AF647) dye was covalently attached to the primary amines of hCD1d via standard N‐hydroxysuccinimide coupling chemistry (Anderson et al., [1964]). The concentration of AF647‐hCD1d was kept constant, and the change in MST signal was measured as a function of increasing detergent concentration (Figure S3). Like ITF, any lipid or detergent that destabilizes CD1 can also alter the MST signal since unfolding changes the protein's Stokes radius and its thermophoretic behavior. […] This is why we compare MST results with ITF and nanoDSF, as described below.
(§2) For MST, hCD1d was fluorescently labeled with AF647‐NHS Ester (Invitrogen #A20006). Briefly, a 10 mM stock of AF647‐NHS was prepared in anhydrous DMSO. Then, 100 μL of 50 μM hCD1d in 1X PBS pH 7.4 was mixed with 1 μL of 10 mM AF647‐NHS (1:2 molar ratio of protein: dye). The mixture was allowed to react for 1 h in the dark at 25°C. Unreacted dye was removed from the protein–dye conjugate by performing size exclusion chromatography in the dark with a Superdex 200 Increase 10/300 GL column at a flow rate of 0.5 mL/min in SEC buffer (100 mM NaCl, 20 mM sodium phosphate, pH 7.2). The degree of labeling was determined by a NanoDrop spectrophotometer at A647 nm (dye absorbance) and A280 nm (hCD1d absorbance). The degree of labeling was determined from the ratio of dye concentration to protein concentration. The degree of labeling was ~75%.
(§3) MST experiments were performed using a Monolith NT.115 instrument (NanoTemper Technologies) using Monolith standard capillaries and the red excitation laser setup. The following settings were applied for all MST experiments: excitation power: 30%–50%, MST power: medium, before MST time: 3 s, MST on time (IR laser): 20 seconds, and after MST time: 1 s. MST measurements were analyzed using the Monolith Affinity Analysis software v2.3 and exported for plotting in GraphPad Prism v10.1. Three replicates were performed, and data are presented as the mean ± standard deviation (n = 3).
(§4) MST measurements of 100 nM AF647‐hCD1d were acquired in the absence and presence of detergents in 1X PBS pH 7.4 at 25°C. Prior to data acquisition, hCD1d and detergent or lipid samples were incubated at 37°C overnight (~12 h) to simulate in vitro and in vivo loading conditions. […] For 18:1 LPC experiments: MST data of 100 nM AF647‐hCD1d were acquired in the absence and presence of 18:1 LPC in 1X PBS pH 7.4 at 25°C.

[4] = Lipid solubility on resuspension in buffer; type: physicochemical; details: 1X PBS pH 7.4 with or without detergent
Description: Detergents were resuspended to desired stock concentrations in 1X PBS pH 7.4 using sonication/heating. The following lipids were purchased: 1‐oleoyl‐2‐hydroxy‐sn‐glycero‐3‐phosphocholine (18:1 LPC, Avanti Research #845875) and α‐galactosyl ceramide (α‐GalCer, Avanti Research #867000).

hCD1d [5] = molecular target: T2, hCD1d; set-up: method as in Cantu et al., 2003; Naidenko et al., 1999; details: previously estimated, in the presence of detergent; ref Cantu et al., 2003; Naidenko et al., 1999; read-out: binding affinity to hCD1d; cited from earlier work
[6] = approximate, cited from earlier work
AF647‐labeled hCD1d [7] = molecular target: T4, AF647‐labeled hCD1d (Homo sapiens, UniProt P15813+P61769); assay: Microscale thermophoresis (MST) binding assay
T4 construct: TEV protease cleavage site ENLYFQS (C); BirA biotinylation site (C); His7 (C); made in house; host or cells: TurboCHO cells (GenScript)
Description: as §1, §2, §3, §4

CD1c = tested on: CD1c; set-up: method as in Mansour et al., 2016; details: ref Mansour et al., 2016; cited from earlier work
[8] = 0.001 M detergent, 100 nM AF647‐hCD1d
[9] = Figure 5B, detergent binding to hCD1d, read-out: MST - Kd (uM) average
[10] = detergent with 100 nM AF647‐labeled hCD1d, 25°C, apparent, read-out: K D (MST)

T2 sequence (P61769+P15813 fused): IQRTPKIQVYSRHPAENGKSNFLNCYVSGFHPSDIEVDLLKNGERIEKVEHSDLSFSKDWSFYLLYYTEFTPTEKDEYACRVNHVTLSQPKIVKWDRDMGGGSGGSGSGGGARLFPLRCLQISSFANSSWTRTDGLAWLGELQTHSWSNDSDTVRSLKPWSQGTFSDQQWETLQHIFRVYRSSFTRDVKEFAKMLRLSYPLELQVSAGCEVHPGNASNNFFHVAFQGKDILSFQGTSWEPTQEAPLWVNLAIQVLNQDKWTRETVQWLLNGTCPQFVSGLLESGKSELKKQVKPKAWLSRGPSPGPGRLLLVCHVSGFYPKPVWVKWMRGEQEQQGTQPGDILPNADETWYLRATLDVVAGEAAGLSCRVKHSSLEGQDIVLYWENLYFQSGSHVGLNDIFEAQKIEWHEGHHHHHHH
T4 sequence (P61769+P15813 fused): as above
T3 sequence (P15813 whole entry, looked up): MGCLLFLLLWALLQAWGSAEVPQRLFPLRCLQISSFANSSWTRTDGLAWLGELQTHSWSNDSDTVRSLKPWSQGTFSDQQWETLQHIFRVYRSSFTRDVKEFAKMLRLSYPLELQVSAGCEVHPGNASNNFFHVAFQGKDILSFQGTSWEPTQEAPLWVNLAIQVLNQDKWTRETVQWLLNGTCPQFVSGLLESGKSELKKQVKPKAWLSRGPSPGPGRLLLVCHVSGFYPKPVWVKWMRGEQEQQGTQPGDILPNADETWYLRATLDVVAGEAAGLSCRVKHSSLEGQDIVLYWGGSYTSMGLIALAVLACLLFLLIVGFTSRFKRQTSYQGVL
T1 sequence (P15813 whole entry, looked up, the tested form may be a part, one chain of several): as the sequence (P15813 whole entry, looked up) above

Compound	Fnorm (rep 1-3) (AF647‐labeled hCD1d [7]; 3.05176e-8 M detergent)	Fnorm (rep 1-3) (AF647‐labeled hCD1d [7]; 6.10352e-8 M detergent)	Fnorm (rep 1-3) (AF647‐labeled hCD1d [7]; 1.2207e-7 M detergent)	Fnorm (rep 1-3) (AF647‐labeled hCD1d [7]; 2.44141e-7 M detergent)	Fnorm (rep 1-3) (AF647‐labeled hCD1d [7]; 4.88281e-7 M detergent)	Fnorm (rep 1-3) (AF647‐labeled hCD1d [7]; 9.76563e-7 M detergent)	Fnorm (rep 1-3) (AF647‐labeled hCD1d [7]; 1.95313e-6 M detergent)	Fnorm (rep 1-3) (AF647‐labeled hCD1d [7]; 3.90625e-6 M detergent)	Fnorm (rep 1-3) (AF647‐labeled hCD1d [7]; 7.8125e-6 M detergent)	Fnorm (rep 1-3) (AF647‐labeled hCD1d [7]; 1.5625e-5 M detergent)	Fnorm (rep 1-3) (AF647‐labeled hCD1d [7]; 3.125e-5 M detergent)	Fnorm (rep 1-3) (AF647‐labeled hCD1d [7]; 6.25e-5 M detergent)	Fnorm (rep 1-3) (AF647‐labeled hCD1d [7]; 0.000125 M detergent)	Fnorm (rep 1-3) (AF647‐labeled hCD1d [7]; 0.00025 M detergent)	Fnorm (rep 1-3) (AF647‐labeled hCD1d [7]; 0.0005 M detergent)	Fnorm (rep 1-3) (AF647‐labeled hCD1d [7]; [8])	Kd (AF647‐labeled hCD1d [7]; [9])	Kd (AF647‐labeled hCD1d [7]; [10])	other results
CCCCCCCC/C=C\CCCCCCCC(=O)OC[C@@H](O)COP(=O)([O-])OCC[N+](C)(C)C [18:1 LPC, 1‐oleoyl‐2‐hydroxy‐sn‐glycero‐3‐phosphocholine]																			Kd [1]: 59.9 ± 19.4 µM; ΔT m (nanoDSF) of lipid (hCD1d [2]; absence vs presence of 200 μM 18:1 LPC, no detergent): −8.1 ± 1.7 °C; Kd (AF647‐labeled hCD1d [3]; 18:1 LPC titration with 0.05% CHAPS): 5.6 ± 1.3 µM; Kd (AF647‐labeled hCD1d [3]; 18:1 LPC titration, absence of detergent, 100 nM AF647‐hCD1d, 25°C): ~7.7 µM and 7.7 µM
CCCCCCCCCCCCCCCCCCCCCCCCCC(=O)N[C@@H](CO[C@H]1O[C@H](CO)[C@H](O)[C@H](O)[C@H]1O)[C@H](O)[C@H](O)CCCCCCCCCCCCCC [α‐GalCer, α‐galactosyl ceramide]																			solubility (in words) [4]: only soluble in the presence of Tween 20; Kd (hCD1d [5]): 0.1 to 0.5 µM; ΔT m (nanoDSF) of lipid (hCD1d [2]; absence vs presence of 50 μM α‐GalCer, with 0.05% Tween 20): +13.7 ± 0.2 °C; Kd (AF647‐labeled hCD1d [3]; α‐GalCer titration with 0.05% Tween 20, estimated): 6.6 ± 4.1 µM
NP‐40	785.26 ‰ and 791.115 ‰ and 789.222 ‰	784.438 ‰ and 791.56 ‰ and 788.778 ‰	784.577 ‰ and 791.858 ‰ and 788.445 ‰	783.564 ‰ and 789.878 ‰ and 788.022 ‰	786.159 ‰ and 790.976 ‰ and 787.911 ‰	783.182 ‰ and 790.102 ‰ and 788.409 ‰	785.891 ‰ and 792.21 ‰ and 790.819 ‰	790.454 ‰ and 796.89 ‰ and 795.418 ‰	794.424 ‰ and 799.885 ‰ and 798.852 ‰	798.147 ‰ and 805.399 ‰ and 802.688 ‰	808.083 ‰ and 815.048 ‰ and 810.611 ‰	810.692 ‰ and 818.134 ‰ and 815.29 ‰	813.488 ‰ and 820.003 ‰ and 816.128 ‰	817.047 ‰ and 822.493 ‰ and 816.971 ‰	814.88 ‰ and 822.01 ‰ and 817.951 ‰	817.154 ‰ and 821.721 ‰ and 817.771 ‰	15.1 µM	15.1 ± 1.5 µM	CMC ([6]; ref Fisher catalogue): 290 µM; CMC ([6]; weight/volume, ref Fisher catalogue): 0.0179%
Triton X‐100	791.41 ‰ and 793.583 ‰ and 796.04 ‰	790.759 ‰ and 794.057 ‰ and 796.294 ‰	791.349 ‰ and 794.228 ‰ and 797.32 ‰	790.267 ‰ and 793.445 ‰ and 796.715 ‰	790.372 ‰ and 793.504 ‰ and 796.705 ‰	791.231 ‰ and 794.12 ‰ and 796.582 ‰	791.888 ‰ and 794.837 ‰ and 796.079 ‰	797.735 ‰ and 798.529 ‰ and 800.673 ‰	801.114 ‰ and 802.717 ‰ and 802.805 ‰	806.412 ‰ and 805.281 ‰ and 808.579 ‰	808.925 ‰ and 810.844 ‰ and 811.355 ‰	813.586 ‰ and 816.925 ‰ and 817.48 ‰	826.07 ‰ and 832.084 ‰ and 828.584 ‰	828.437 ‰ and 829.609 ‰ and 830.632 ‰	829.715 ‰ and 832.769 ‰ and 836.286 ‰	833.009 ‰ and 835.212 ‰ and 836.54 ‰	45.8 µM	45.8 ± 7.9 µM	CMC ([6]; ref Anatrace catalogue): 230 µM; CMC ([6]; weight/volume, ref Anatrace catalogue): 0.015%; stripping of lipid antigens from CD1c (in words) (CD1c): could efficiently strip lipid antigens away
